Tests used:
IRAK4 = molecular target: T1, IRAK4 (Homo sapiens, UniProt Q9NWZ3); assay: OCI-LY10 IRAK MSD assay DC50 (IRAK4 degradation); assay type: cell-based; settings: OCI-Ly10 cells, incubated for 4 hr, concentration of compound required to degrade 50% of protein
T1 construct: endogenous in cells; host or cells: OCI-Ly10
T1 sequence (Q9NWZ3 1-460): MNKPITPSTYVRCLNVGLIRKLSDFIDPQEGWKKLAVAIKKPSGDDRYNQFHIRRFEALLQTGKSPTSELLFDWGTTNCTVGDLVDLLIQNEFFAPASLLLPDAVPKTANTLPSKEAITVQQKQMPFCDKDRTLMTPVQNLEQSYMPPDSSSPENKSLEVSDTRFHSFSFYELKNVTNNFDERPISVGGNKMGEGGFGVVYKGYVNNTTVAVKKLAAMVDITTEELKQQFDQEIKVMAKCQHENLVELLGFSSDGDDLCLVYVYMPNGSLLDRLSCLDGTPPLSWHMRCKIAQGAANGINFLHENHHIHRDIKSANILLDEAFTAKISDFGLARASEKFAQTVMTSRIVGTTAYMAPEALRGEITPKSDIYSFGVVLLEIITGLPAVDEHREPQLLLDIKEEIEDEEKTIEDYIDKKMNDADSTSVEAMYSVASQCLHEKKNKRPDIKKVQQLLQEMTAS
Method: A MSD assay is run to determine the concentration of compound required to degrade 50% of protein (DC50).
• Compounds were reconstituted to 10 mM in stock solutions. The stock solutions were diluted to 5 mM and 45 μL of each dilution was transferred to a 384 pp-plate. A 3 fold, 8-point serial dilution was performed by transferring 15 μL of compound into 30 μL DMSO using Janus. • 20 nL of each compound were added into each well of a 96-well plate (Corning3799). • OCI-Ly10 cells were seeded into the 96-well plate at 3.0*10e^5 cells/100 μL/well. • The cell plate was shaken at 720 rpm for 5 min and incubated for 4 hr. • 100 μL of cells were transferred into the 96-PCR plate and spun down at high speed for 5 mins. • The supernatant was discarded and 100 μL of RIPA lysis buffer with proteinase inhibitors was added per well. The plate was then sealed and shaken at 600 rpm and 4° C. for about 20 min. • The plate was then spun down at high speed (about 3200 g) for 30 min and then frozen in a −80° C. fridge. • A bare MSD plate (L15XA-3) was coated with 2 μg/mL of capture antibody (mouse Anti-IRAK4 antibody [2H9], ab119942) in PBS to 40 μL/well and incubated overnight at 4° C.
• The MSD coated plate was washed 3× (150 μL/well) with 1×TBST (CST #9997S). • The MSD plate was then blocked with 150 μL of blocking buffer [3% Blocker A (MSD, R93BA-4) in TBST]/well and shaken for 1 hr at RT and 600 rpm. • The MSD plate was washed 3× (150 μL/well) with 1×TBST. The sample RIPA lysates were then added to the MSD plate (50 μL/well) and shaken for 1 hr at RT and 600 rpm. • The MSD plate was washed 3× (150 μL/well) with 1×TBST and the primary detection antibody (Rabbit Anti-IRAK4 antibody [Y279], ab32511) was added to a final concentration of 1 μg/ml with 25 μL/well. The plate was then shaken for 1 hr at RT and 600 rpm. • The MSD plate was washed 3× (150 μL/well) with 1×TBST and the secondary detection antibody, SULFO-TAG anti-species antibody (Anti Rabbit Antibody (R32AB-5) MSD, R32AB-1) was added to a volume of 25 μL/well at a final concentration of 1 μg/ml. The plate was then shaken for 1 hr at RT and 600 rpm. • The MSD plate was then washed 3× (150 μL/well) with 1×TBST. • 1×MSD reading buffer was then added (150 μL/well) and the plate […].
(MSD, R92TC-2) • The MSD instrument was then read.
The remaining activity was calculated following the formula below:
• The DC50 was calculated by fitting the Curve using Xlfit (v5.3.1.3), equation 201: […]
The letter codes for IRAK4 DC50 indicate the concentration of compound required to degrade 50% of protein: A (<0.01 μM), B (0.01-0.1 μM), C (>0.1-0.2 μM), D (>0.2 μM).

OCI-LY10 cells = assay: CellTiter-Glo Luminescent Cell Viability Assay; assay type: cell-based; settings: Homo sapiens, 96 h, incubated 4 days, read-out: OCI-LY10 CTG IC50
Method: Compound-mediated viability effect on OCI-LY10 was quantitatively determined using the CellTiter-Glo® Luminescent Cell Viability Assay kit from Promega (Catalog number G7570) following manufacturer's recommended procedures. Briefly, OCI-LY10 cells were seeded into 384 well plates (Grenier Bio-One, Catalog number 781080) with a density of 10,000 cells per well. Compounds were then added to the assay plate with final top concentration of 10 μM and 1:3 dilution series with total of 9 doses. The final DMSO concentration was normalized to 0.2%. The assay plates were incubated at 37° C. for 4 days under 5% CO2. Then the assay plate was equilibrated at room temperature for 10 minutes. To determine cell viability, 30 μL CellTiter Glo reagent was added to each well and the assay plate was centrifuged at 1000 rpm for 30 second, incubated at room temperature for 10 min, and analyzed by detecting the luminescence using a multimode plate reader (EnVision 2105, PerkinElmer). The data was then analyzed by software Prism 7.0 from GraphPad and the dose response curves were fit using a three-parameter logistic equation to calculate IC50.
The letter codes for OCI-LY10 CTG IC50 include: A (<1 μM), B (1-10 μM), C (>10 μM).

Compound | DC50 (IRAK4) [nM] | IC50 (OCI-LY10 cells) [nM]
CN(C[C@H]1CC[C@H](n2cc3cc(NC(=O)c4cccc(C(F)(F)F)n4)c(C(C)(C)O)cc3n2)CC1)C1CCN(c2ccn3c(N4CCC(=O)NC4=O)cnc3c2)CC1 [I-1] | < 10 | 1000 to 10000
CC(C)(O)c1cc2nn([C@H]3CC[C@H](CC4CCN(c5ccn6c(N7CCC(=O)NC7=O)cnc6c5)CC4)CC3)cc2cc1NC(=O)c1cccc(C(F)(F)F)n1 [I-2] | < 10 | 1000 to 10000
O=C1CCN(c2cnc3cc(C#CCOC4CCN(C[C@H]5CC[C@H](n6cc(NC(=O)c7cnn8ccc(N9C[C@H]%10C[C@@H]9CO%10)nc78)c(C(F)F)n6)CC5)CC4)ccn23)C(=O)N1 [I-3] | < 10 | 1000 to 10000
CN(C[C@H]1CC[C@H](n2cc3cc(NC(=O)c4cccc(C(F)(F)F)n4)c(C(C)(C)O)cc3n2)CC1)C1CCN(c2cccn3c(N4CCC(=O)NC4=O)cnc23)CC1 [I-4] | < 10 | 1000 to 10000
CN(C[C@H]1CC[C@H](n2cc3cc(NC(=O)c4cccc(C(F)(F)F)n4)c(C(C)(C)O)cc3n2)CC1)C1CCN(c2ccc3c(N4CCC(=O)NC4=O)cncc3c2)CC1 [I-5] | – | 1000 to 10000
CC(C)(O)c1cc2nn([C@H]3CC[C@H](CN4CCC(c5ccc6c(N7CCC(=O)NC7=O)cncc6c5)CC4)CC3)cc2cc1NC(=O)c1cccc(C(F)(F)F)n1 [I-6] | – | 1000 to 10000
CN(C[C@H]1CC[C@H](n2cc3cc(NC(=O)c4cccc(C(F)(F)F)n4)c(C(C)(C)O)cc3n2)CC1)C1CCN(c2cccc3c(N4CCC(=O)NC4=O)cncc23)CC1 [I-7] | – | > 10000
O=C1CCN(c2cncc3c(C#CCOC4CCN(C[C@H]5CC[C@H](n6cc(NC(=O)c7cnn8ccc(N9C[C@H]%10C[C@@H]9CO%10)nc78)c(C(F)F)n6)CC5)CC4)cccc23)C(=O)N1 [I-9] | < 10 | 1000 to 10000
O=C1CCN(c2cncc3cc(C#CCOC4CCN(C[C@H]5CC[C@H](n6cc(NC(=O)c7cnn8ccc(N9C[C@H]%10C[C@@H]9CO%10)nc78)c(C(F)F)n6)CC5)CC4)ccc23)C(=O)N1 [I-16] | > 200 | 1000 to 10000
COc1cc2nn([C@H]3CC[C@H](CN4CCC(c5ccc6c(N7CCC(=O)NC7=O)cncc6c5)CC4)CC3)cc2cc1NC(=O)c1cccc(C(F)(F)F)n1 [I-17] | – | < 1000
CC(C)(O)c1cc2nn([C@H]3CC[C@H](CN4CCC(c5cccn6c(N7CCC(=O)NC7=O)cnc56)CC4)CC3)cc2cc1NC(=O)c1cccc(C(F)(F)F)n1 [I-23] | < 10 | 1000 to 10000
O=C1CCN(c2cnc3c(C#CCOC4CCN(C[C@H]5CC[C@H](n6cc(NC(=O)c7cnn8ccc(N9C[C@H]%10C[C@@H]9CO%10)nc78)c(C(F)F)n6)CC5)CC4)cccn23)C(=O)N1 [I-24] | < 10 | 1000 to 10000
COc1cc2nn([C@H]3CC[C@H](CN(C)C4CCN(c5cccn6c(N7CCC(=O)NC7=O)cnc56)CC4)CC3)cc2cc1NC(=O)c1cccc(C(F)(F)F)n1 [I-25] | < 10 | < 1000
COc1cc2nn([C@H]3CC[C@H](CN4CCC(c5cccn6c(N7CCC(=O)NC7=O)cnc56)CC4)CC3)cc2cc1NC(=O)c1cccc(C(F)(F)F)n1 [I-26] | 10 to 100 | < 1000
COc1cc2nn([C@H]3CC[C@H](CN(C)C4CCN(c5ccn6c(N7CCC(=O)NC7=O)cnc6c5)CC4)CC3)cc2cc1NC(=O)c1cccc(C(F)(F)F)n1 [I-31] | < 10 | < 1000
O=C1CCN(c2cnc3cc(C4CCN(C[C@H]5CC[C@H](n6cc7cc(NC(=O)c8cccc(C(F)(F)F)n8)ccc7n6)CC5)CC4)ccn23)C(=O)N1 [I-32] | > 200 | < 1000
CC(C)(O)c1cc2nn([C@H]3CC[C@H](CNCCOCCOCC#Cc4ccn5c(N6CCC(=O)NC6=O)cnc5c4)CC3)cc2cc1NC(=O)c1cccc(C(F)(F)F)n1 [I-34] | 10 to 100 | > 10000
O=C1CCN(c2cnc3cc(C4CCN(C[C@H]5C[C@H](n6cc7cc(NC(=O)c8cccc(C(F)(F)F)n8)ccc7n6)C5)CC4)ccn23)C(=O)N1 [I-85] | > 200 | –
COc1cc2nn([C@H]3CC[C@H](CN(C)C4CCN(c5ccn6c(N7CCC(=O)NC7=O)cnc6c5)CC4)CC3)cc2cc1NC(=O)c1cc(F)cc(C(F)(F)F)c1 [I-86] | 10 to 100 | –
COc1cc2nn([C@H]3CC[C@H](CN(C)C4CCN(c5ccn6c(N7CCC(=O)NC7=O)cnc6c5)CC4)CC3)cc2cc1NC(=O)c1cncc(Cl)c1 [I-87] | 10 to 100 | –
COc1cc2nn([C@H]3CC[C@H](CN(C)C4CCN(c5cccn6c(N7CCC(=O)NC7=O)cnc56)CC4)CC3)cc2cc1NC(=O)c1cncc(Cl)c1 [I-88] | > 200 | –

Reference: US20250375526A1, “IRAK DEGRADERS AND USES THEREOF” (Kymera Therapeutics, Inc., priority 2020, published 2025)
